{"source": "patent US8853164B2", "about": "“Oligopeptide improving differentiation of osteoblasts” (Osstemimplant Co., Ltd., priority 2010, dated 2014)", "key": {"[1]": {"system": "BMP-specific receptor (BMPR-IA or BMPR-II)", "assay": "BMP specific binding assay (ELISA, absorbance at 595 nm)", "settings": "PEP7 1 μg/well coated, BMPR-IA or BMPR-II 1 μg/well; relative to PEP111", "procedure": "PEP7 (1 μg/well) was added to an ELISA plate and incubated at 4° C. for 12 hours. After PEP7 was coated on the plate, BMPR-IA or BMPR-II (1 μg/well) was added thereto and reacted at room temperature for 2 hours, to obtain a PEP7-BMP receptor complex. A primary antibody specific for a BMP receptor (0.5 μg BMR-IA, BMPR-II) was added to the complex and reacted at room temperature for 1 hour. A secondary antibody (BMPR-IA or BMPR-II-Fc Ab-HRP) was then added to the resulting mixture and reacted at room temperature for 1 hour. After ABTS was added to the resulting mixture and reacted at room temperature for 30 minutes, an absorbance of the resulting mixture was measure at 595 nm (FIG. 1, wherein PEP111(A) means the sequence whose 9th amino acid was alanine, PEP111(P) means the sequence whose alanine was replaced with proline, and PEP111(T) means the sequence whose alanine was replaced with threonine)."}, "MG63 cells [2]": {"system": "MG63 cells", "assay": "Initial cell differentiation ability assay (ALP activity)", "format": "cell-based", "settings": "differentiation culture medium, measured at Day 3 and 8, relative to PEP111", "procedure": "(§1) The effect of the oligopeptide disclosed herein on osteoblastic differentiation was examined by comparing ALP (alkaline phosphatase) activity as an initial differentiation marker of osteoblasts. In order to compare the differentiation ability of osteoblasts, MG63 cells were distributed to a 24-well plate at a concentration of 1×10^5 cells and incubated for 1 day. Then, the cell was treated with each of the PEP7 oligopeptide disclosed herein, and positive controls BMP-2 and PEP111 in a differentiation culture medium and incubated in a 37° C. CO2 incubator. The medium was replaced with a fresh one at 2-day intervals, the ALP activity was measured at Day 3 and 8 after the cultivation (FIG. 2)."}, "MG63 cells [3]": {"system": "MG63 cells", "assay": "Late cell differentiation ability assay (osteocalcin production, human ELISA kit)", "format": "cell-based", "settings": "culture solution at Day 14, relative to PEP111", "procedure": "as §1\n(§2) The effect of the PEP7 oligopeptide on osteoblastic differentiation was examined by comparing the production amount of osteocalcin and osteopontin as a late differentiation marker of osteoblasts. The cultivation was carried out according to the same conditions as described above. At Day 14, the culture solution was harvested, and the amount of osteocalcin and osteopontin therein was measured by using a human ELISA kit (FIGS. 3 and 4)."}, "MG63 cells [4]": {"system": "MG63 cells", "assay": "Late cell differentiation ability assay (osteopontin production, human ELISA kit)", "format": "cell-based", "settings": "culture solution at Day 14, relative to PEP111", "procedure": "as §1, §2"}, "MG63 cells [5]": {"system": "MG63 cells", "assay": "Calcification ability assay (Alizarin red S staining)", "format": "cell-based", "settings": "Day 14, Alizarin red S staining, relative to PEP111", "procedure": "as §1\nIn order to examine whether the oligopeptide disclosed herein can successfully induce osteogenic differentiation, extracellular matrix calcification was observed. The cultivation was carried out according to the same conditions as described above. At Day 14 and 21, the culture solution was harvested and subjected to Alizarin red S staining (FIG. 5)."}}, "data": [{"sequence": "KIPKPSSVPTELSAISMLYL (PEP7)", "values": [{"measurement": "binding affinity to a BMP-specific receptor, higher than PEP111", "setting": "[1]", "result": "about 23%"}, {"measurement": "ALP (alkaline phosphatase) activity, higher than PEP111", "setting": "MG63 cells [2]", "result": 20, "unit": "%"}, {"measurement": "osteocalcin production, more than PEP111", "setting": "MG63 cells [3]", "result": "≥ 14", "unit": "%"}, {"measurement": "osteopontin production, more than PEP111", "setting": "MG63 cells [4]", "result": "≥ 21", "unit": "%"}, {"measurement": "calcification ability, higher than PEP111", "setting": "MG63 cells [5]", "result": "about 19%"}]}]}
